{
  "source": "patent US10370391B2",
  "about": "“Hydrogen peroxide-activable, anti-oxidant compounds and methods using same” (Beth Israel Deaconess Medical Center, Inc., priority 2014, dated 2019)",
  "key": {"hepatic I/R injury": {"system": "hepatic I/R injury", "assay": "Mouse model of hepatic I/R injury", "assay_type": "in vivo", "settings": "ip at reperfusion", "procedure": "FIG. 5, comprising FIGS. 5A-5D, is a set of images and bar graphs illustrating beneficial effects of BRAP in hepatic I/R (1 hour ischemia/12 hour reperfusion) injury. FIG. 5A: Hematoxylin and eosin (H/E) staining, DHE staining, and TUNEL staining of mouse liver after injection with HBA or BRAP. FIGS. 5B-5D: Quantitative analysis of serum ALT levels (FIG. 5B), cleaved caspase-3 protein expression (FIG. 5C), and TNF-α protein expression (FIG. 5D) after I/R injury. *p<0.01 relative to Veh I/R. †p<0.05 relative to HBA I/R (n=3˜4/group). Actin protein expression was used as an internal control for protein loading.\nExperiments to evaluate whether BRAP reduces ROS generation and inhibits apoptosis were performed in a mouse model of […] I/R injuries. I/R was induced first by 1 hour of ligation of hepatic artery and portal vein followed by reperfusion of hepatic artery. BRAP or HBA was then administrated intraperitoneally (ip) at the time of reperfusion.\nHepatic I/R surgery was performed in 12 week-old male mice. Briefly, mice were anaesthetized, and midline incision was performed for laparotomy. After identifying the portal triad and biliary tree, the main trunk of hepatic artery and portal vein were clamped with vascular clip except for the vasculatures to the right lower lobe to achieve ischemic injury to approximately 70% of the liver. After 1 hour of ischemia, reperfusion was achieved by releasing the vascular clip. No vascular clamp was done for the sham group of mice.\nFor liver apoptosis assay, terminal deoxynucleotidyl transferase dUTP nick end labeling (TUNEL) staining was performed using a DeadEnd™ Fluorometric TUNEL kit (Promega, Madison, Wis.). Tissue sections were stained for nuclei (4′,6-diamidino-2-phenylindole (DAPI) staining) and apoptotic nuclei (TUNEL staining) and analyzed using a confocal laser scanning microscope. For heart tissues, TUNEL staining was performed using in situ cell death detection Kit, fluorescein (Roche Applied Science, Indianapolis, Ind.). To distinguish cardiomyocyte from non-cardiomyocyte nuclei, triple stain for nuclei (DAPI staining), apoptotic nuclei (TUNEL staining), and cardiomyocytes (α-Actinin staining) was used, and the stained sections were analyzed using confocal microscopy. A minimum of ˜10 high power fields with ˜2000 nuclei/field were counted for each sample.\nHeart tissues were collected for molecular analyses were performed in Bae, et al., 2010, Am J Physiol Heart Circ Physiol 299:H1374. For RT-PCR ribosomal 18S primers acted as internal controls and all RT-PCR signals were normalized to the 18S signal of the corresponding RT products. For Western blot analysis, the protein content was measured using BCA assay. Actin protein expression was used as an internal control for protein loading.\nThe optimal cutting temperature (OCT)-embedded tissues were fixed in 4% paraformaldehyde. Tissue sections were incubated with 5 μM dihydroethidium (DHE, Sigma-Aldrich) at 37° C. for 30 min in a humidified chamber protected from light. Then, 4′,6-diamidino-2-phenylindole (DAPI) was applied. Images were acquired by confocal fluorescence microscope."}, "[1]": {"system": "nitric oxide production in LPS-treated cells", "assay": "Nitric oxide generation in LPS-treated cells (Griess reaction)", "assay_type": "cell-based", "settings": "HBA alone", "procedure": "(§1) FIG. 4, comprising FIGS. 4A-4F, is a set of graphs, bar graphs and images illustrating anti-oxidant and anti-inflammatory effects of BRAP in vitro. […] The generation of ROS was monitored by flow cytometry as an indicator of DCF fluorescence. Fluorescence was analyzed in 10,000 cells with excitation at 480 nm and emission at 530 nm. FIG. 4C: Protective effect of BRAP on H2O2— stimulated adult rat cardiomyocytes. V=vehicle, *<0.05 vs. V+H2O2 (n=4). […] (n=4/group).\nNitric oxide is one of major sources of oxidative stress and a well-known pro-inflammatory mediator in the pathogenesis of inflammation (Lundberg, et al., 1997, Nature Medicine 3:30). The effects of BRAP on the generation of nitric oxide in LPS-treated cells were studied using a colorimetric assay based on the Griess reaction."}, "TNF-α": {"system": "TNF-α", "assay": "TNF-α level in LPS-stimulated macrophage cells", "assay_type": "cell-based, mouse", "procedure": "as §1\n(§2) The anti-inflammatory effects of BRAP on LPS-stimulated cells were investigated by measuring the level of inflammatory cytokines such as TNF-α (tumor necrosis factor-alpha) and iNOS (inducible nitric oxide synthases) (FIGS. 4E-4F). […] These observations indicate that BRAP, as well as BRAP-encapsulated PLGA microparticles, is able to scavenge overproduced H2O2 and serve as a H2O2-activable anti-oxidant. Further, the enhanced anti-oxidant activity of BRAP is derived from the combined effects of H2O2-scavenging boronic esters and HBA generation after H2O2-mediated boronate oxidation."}, "[2]": {"assay": "H2O2 scavenging by peroxalate chemiluminescence (diphenyl oxalate, rubrene)", "settings": "H2O2 solution 10 μM; HBA alone 10 μM", "procedure": "FIG. 21 is a bar graph illustrating H2O2-scavenging by BRAP-encapsulated PLGA microparticles. BRAP-encapsulated PLGA microparticles were incubated in H2O2 solution (10 μM) for 10 minutes, and the level of H2O2 was determined by peroxalate chemiluminesce using rubrene (1 mg) and diphenylperoxalate (10 mg).\nWithout wishing to be limited by any theory, BRAP could scavenge H2O2 during its H2O2-mediated boronate oxidation. This possibility was investigated using peroxalate chemiluminescence. Peroxalate chemiluminescence has been used as a versatile tool for the detection of a variety of chemical species including fluorescent molecules and H2O2 because of its excellent specificity and simplicity (Hadd, et al., 1999, J. Chem. Educ. 76:1237; Lee, et al., 2011, Bull. Korean Chem. Soc. 32:2187). […] A majority of H2O2 was scavenged by the same concentration of BRAP within 1 minutes.\nThe ability of the boronate compound to scavenge H2O2 was evaluated by measuring the chemiluminescence intensity after the reaction with diphenyl oxalate solution including rubrene. The boronate (1 μM, or 10 μM) was added in the H2O2 solution (10 μM). After 1 min reaction with H2O2, diphenyl oxalate solution was added to the H2O2 solution, and the chemiluminescence intensity was measured by using a luminometer (Femtomaster FB 12, Zylux Corporation, TN, US; FIG. 13).\nThe ability of BRAP to scavenge H2O2 was evaluated by measuring the chemiluminescence intensity after the reaction with diphenyl oxalate solution including rubrene. BRAP (1 μM, 5 μM, 10 μM, 20 μM) was added in the H2O2 solution (10 μM). After 1, 5 or 10 min reaction with H2O2, diphenyl oxalate solution was added to the H2O2 solution, and the chemiluminescence intensity was measured by using a luminometer (Femtomaster FB 12, Zylux Corporation, TN, US)."}, "[3]": {"system": "mouse macrophage (RAW 264.7) cells stimulated by LPS", "assay": "Intracellular ROS generation in LPS-stimulated macrophages (DCFH-DA, flow cytometry)", "assay_type": "cell-based", "settings": "HBA 0.5 mM; LPS 1 μg/mL", "procedure": "as §1\nThe anti-oxidant activities of BRAP were examined using mouse macrophage (RAW 264.7) and fibroblast (NIH/3T3) cells stimulated by LPS (lipopolysaccharide) (FIGS. 4A-4B). Intracellular ROS production in the stimulated cells was analyzed by flow cytometry using DCFH-DA ([…]-diacetate), which can be oxidized by the action of various intracellular oxidants such as H2O2 and hydroxyl radical to become fluorescent […] (DCF) (Kim, et al., 2011, Biomat. 32:3021; Cho, et al., 2012, Adv. Funct. Mat. 22:4038). Untreated cells have no significant DCF fluorescence."}, "iNOS": {"system": "iNOS", "assay": "iNOS level in LPS-stimulated macrophage cells", "assay_type": "cell-based, mouse", "procedure": "as §1, §2"}},
  "data": [
    {"smiles": "OCc1ccc(O)cc1", "note": "[HBA, 4-hydroxybenzyl alcohol, reference compound]", "values": [
      {"measurement": "ROS generation (DHE staining) in liver", "setting": "hepatic I/R injury", "result": "suppressed"},
      {"measurement": "protection from I/R-induced liver damage (serum ALT)", "setting": "hepatic I/R injury", "result": "much less potent protective effect"},
      {"measurement": "hepatic damages (histology, H/E)", "setting": "hepatic I/R injury; 1 hour ischemia/12 hour reperfusion, same dose of HBA and BRAP", "result": "minimal therapeutic effects"},
      {"measurement": "TNF-α protein expression", "setting": "hepatic I/R injury; same dose of HBA and BRAP", "result": "minimal inhibitory effects"},
      {"measurement": "cleaved caspase-3 protein expression", "setting": "hepatic I/R injury; same dose of HBA and BRAP", "result": "minimal inhibitory effects"},
      {"measurement": "hepatic apoptosis (TUNEL)", "setting": "hepatic I/R injury; same dose of HBA and BRAP", "result": "modest inhibitory effects"},
      {"measurement": "concentration at which nitric oxide production was inhibited", "setting": "[1]", "result": "higher than 0.5 mM"},
      {"measurement": "TNF-α level", "setting": "TNF-α", "result": "reduced the expression of TNF-α but only at a higher dose than BRAP"},
      {"measurement": "chemiluminescence intensity (H2O2 scavenging)", "setting": "[2]", "result": "did not reduce chemiluminescence intensity"},
      {"measurement": "inhibition of LPS-induced ROS generation", "setting": "[3]", "result": "moderate inhibitory effects"},
      {"measurement": "iNOS level", "setting": "iNOS", "result": "failed to reduce iNOS level"}
    ]}
  ]
}
